According to patent US20240245673A1, “Papain-like protease (PLpro) inhibitors” (Pfizer Inc., priority 2022, published 2024):

Target: SARS-CoV-2 Papain like protease (PLpro) (Severe acute respiratory syndrome coronavirus 2 (2019-nCoV) (SARS-CoV-2), UniProt P0DTD1)
Assay: Papain Like Protease (PLpro) biochemical assay with profluorogenic substrate Z-RLRGG-AMC
Conditions: SARS-CoV-2 PLpro 6.25 nM, 25 μM Z-RLRGG-AMC substrate, 60 minute reaction; read-out: IC50

Row | Compound | IC50 [nM]
1 | Cc1cc(COCc2cscn2)ccc1C(=O)NC1(c2cc(-c3cc(C(=O)N(C)C)n[nH]3)cc3ncccc23)CC1 [Example 351, N,N-dimethyl-5-(5-(1-(2-methyl-4-((thiazol-4-ylmethoxy)methyl)benzamido)cyclopropyl)quinolin-7-yl)-1H-pyrazole-3-carboxamide] | < 1
2 | Cc1cc(COCc2cscn2)ccc1C(=O)NC1(c2cc(-c3cnn(CC(N)=O)c3)nc3ccccc23)CC1 [Example 352, N-(1-(2-(1-(2-amino-2-oxoethyl)-1H-pyrazol-4-yl)quinolin-4-yl)cyclopropyl)-2-methyl-4-((thiazol-4-ylmethoxy)methyl)benzamide] | < 1
3 | COCC(OCc1cscn1)c1ccc(C(=O)NC2(c3cc(-c4cnn(C)c4)cc4nc(C)ccc34)CC2)c(C)c1 (stereo not shown) [Example 353, 4-(2-methoxy-1-(thiazol-4-ylmethoxy)ethyl)-2-methyl-N-(1-(2-methyl-7-(1-methyl-1H-pyrazol-4-yl)quinolin-5-yl)cyclopropyl)benzamide] | < 1
4 | Cc1cc(COCc2cscn2)ccc1C(=O)NC1(c2cc(-c3cnn(C)c3)cc3nc(C(C)(C)O)ccc23)CC1 [Example 354, N-(1-(2-(2-hydroxypropan-2-yl)-7-(1-methyl-1H-pyrazol-4-yl)quinolin-5-yl)cyclopropyl)-2-methyl-4-((thiazol-4-ylmethoxy)methyl)benzamide] | < 1
5 | Cc1cc(COCc2cscn2)ccc1C(=O)NC1(c2cc(-c3cc(C(=O)N(C)CC(C)(C)O)n[nH]3)nc3ccccc23)CC1 [Example 357, N-(2-hydroxy-2-methylpropyl)-N-methyl-5-(4-(1-(2-methyl-4-((thiazol-4-ylmethoxy)methyl)benzamido)cyclopropyl)quinolin-2-yl)-1H-pyrazole-3-carboxamide] | < 1
6 | Cc1cc(COCc2cscn2)ccc1C(=O)NC1(c2cc(-c3cnn(C)c3)cc3nc(O)ccc23)CC1 [Example 358, N-(1-(2-hydroxy-7-(1-methyl-1H-pyrazol-4-yl)quinolin-5-yl)cyclopropyl)-2-methyl-4-((thiazol-4-ylmethoxy)methyl)benzamide] | < 1
7 | Cc1cc(COCc2cscn2)ccc1C(=O)NC1(c2cc(-c3cnn(CCC(=O)N(C)C)c3)nc3ccccc23)CC1 [Example 362] | < 1
8 | Cc1cc(COCc2cscn2)ccc1C(=O)NC1(c2cc(-c3cnn(C(C)(C)C(=O)N(C)C)c3)nc3ccccc23)CC1 [Example 363] | < 1
9 | CCN(C)C(=O)Cn1cc(-c2cc(C3(NC(=O)c4ccc(COCc5cscn5)cc4C)CC3)c3ccccc3n2)cn1 [Example 364] | < 1
10 | Cc1cc(COCc2ccccn2)ccc1C(=O)NC1(c2cc(-c3cnn(CC(=O)N(C)C)c3)nc3ccccc23)CC1 [Example 366, N-(1-(2-(1-(2-(dimethylamino)-2-oxoethyl)-1H-pyrazol-4-yl)quinolin-4-yl)cyclopropyl)-2-methyl-4-((pyridin-2-ylmethoxy)methyl)benzamide] | < 1
